# Measured values: patent US20250295620A1, “PHARMACEUTICAL COMPOSITION FOR TREATMENT OF HEART FAILURE WITH DIASTOLIC DYSFUNCTION” (NATIONAL UNIVERSITY CORPORATION TOKAI NATIONAL HIGHER …, priority 2022, published 2025)
# Tests used:
# HFpEF patients = settings: clinical studies, Anker S et al., N Engl J Med 2021; cited from earlier work
# HFpEF model mice [1] = test: Transthoracic echocardiography in HFpEF model mice, Example 1; format: in vivo; settings: tamibarotene 3 mg/kg, peretinoin 0.3 mg/body, oral gavage once a day, five weeks; for left ventricular ejection fraction before and after drug administration: Example 1, FIG. 2; for E/e′ ratio after completion of drug administration compared with before start: Example 1, FIG. 3
# Procedure: (§1) HFpEF model mice are generated by the method reported by Schiattarella et al. (Nature. 568 (7752): 351-356. 2019). Specifically, male mice at an age of 8 to 10 weeks are given High Fat Diet (Rodent Diet with 60% kcal % fat, D12492, Research Diets Inc.) and drinking water containing a dissolved nitric oxide synthase inhibitor (No-nitro-L-arginine methyl ester hydrochloride (L-NAME), N5751, Sigma) (at a concentration of 0.5 g/L), and kept for five weeks. Various measurements are performed to confirm the establishment of an HFpEF model.
# (§2) The following drugs are administered to mouse groups while mice are continued to be given the high-fat diet and the drinking water containing the dissolved nitric oxide synthase inhibitor. AM80 (Cat. No. 3507, TOCRIS) is orally administered to tamibarotene administration group via oral gavage at a single dose of 3 mg/kg once a day. Peretinoin (Cat. No. HY-100008, MedChemExpress) is orally administered to peretinoin administration group via oral gavage at a single dose of 0.3 mg/body once a day. DMSO as a vehicle is orally administered to control group via oral gavage once a day. Administration is continued for five weeks, and various measurements are performed five weeks after the initial drug administration.
# (§3) Transthoracic echocardiography is performed on mice under inhalational anesthesia with isoflurane. Transmitral flow velocity pattern (TMF) is measured by pulsed Doppler echocardiography using vevo 3100 (FUJIFILM VisualSonics) equipped with a 30 MHz probe for small animals (MX-400) to determine the early diastolic inflow velocity pattern (E-wave). Early diastolic mitral annular velocity (e′) is measured by tissue Doppler echocardiography. The transmitral E velocity is divided by the e′ velocity to calculate an E/e′ ratio. LV end-systolic diameter and LV end-diastolic diameter are measured by M-mode echocardiography to calculated an LV ejection fraction (EF %).
# HFpEF model mice [2] = test: Pressure-volume loop analysis with conductance catheter in HFpEF model mice, Example 1; format: in vivo; settings: Example 1, FIG. 4; tamibarotene 3 mg/kg, peretinoin 0.3 mg/body, oral gavage once a day, five weeks
# Procedure: as §1
# as §2, with “administration. […]” for “administration.”
# HFpEF model mice [3] = test: Heart weight/tibia length measurement in HFpEF model mice, Example 2; format: in vivo; settings: Example 2, FIG. 5; tamibarotene 3 mg/kg, peretinoin 10 mg/kg, oral gavage once a day, five weeks; compared among groups incl. DMSO control
# Procedure: as §1
# as §2, with “10 mg/kg” for “0.3 mg/body”
# Mice are euthanized after the catheterization, and the heart is harvested for weight measurement. […]
# HFpEF model mice [4] = test: Transthoracic echocardiography in HFpEF model mice, Example 2; format: in vivo; settings: tamibarotene 3 mg/kg, peretinoin 10 mg/kg, oral gavage once a day, five weeks; for left ventricular ejection fraction before and after drug administration: Example 2, FIG. 6; for E/e′ ratio after completion of drug administration compared with before start: Example 2, FIG. 7
# Procedure: as §1
# as §2, with “10 mg/kg” for “0.3 mg/body”
# as §3
# HFpEF model mice [5] = test: Pressure-volume loop analysis with conductance catheter in HFpEF model mice, Example 2; format: in vivo; settings: Example 2, FIG. 8; tamibarotene 3 mg/kg, peretinoin 10 mg/kg, oral gavage once a day, five weeks
# Procedure: as §1
# as §2, with “10 mg/kg” for “0.3 mg/body”, “administration. […]” for “administration.”
# HFpEF model mice [6] = test: Masson's trichrome staining of heart tissue of HFpEF model mice, Example 2; format: in vivo; settings: Example 2, FIG. 9; tamibarotene 3 mg/kg, peretinoin 10 mg/kg, oral gavage once a day, five weeks; 400-fold
# Procedure: as §1
# The following drugs are administered to mouse groups while mice are continued to be given the high-fat diet and the drinking water containing the dissolved nitric oxide synthase inhibitor. AM80 (Cat. No. 3507, TOCRIS) is orally administered to tamibarotene administration group via oral gavage at a single dose of 3 mg/kg once a day. Peretinoin (Cat. No. HY-100008, MedChemExpress) is orally administered to peretinoin administration group via oral gavage at a single dose of 10 mg/kg once a day. DMSO as a vehicle is orally administered to control group via oral gavage once a day. […]
# Tissue specimens are prepared from the harvested heart, and stained with Masson's trichrome staining. The tissue fibrosis is photographed, and the images are analyzed using Image J for assessment.
# HFpEF model mice [7] = test: Diastolic function of HFpEF model mice, overall conclusion from Examples 1 and 2; format: in vivo; settings: summary of Examples 1 and 2
# Procedure: as §1
# The following drugs are administered to mouse groups while mice are continued to be given the high-fat diet and the drinking water containing the dissolved nitric oxide synthase inhibitor. […]
# Transthoracic echocardiography is performed on mice under inhalational anesthesia with isoflurane. Transmitral flow velocity pattern (TMF) is measured by pulsed Doppler echocardiography using vevo 3100 (FUJIFILM VisualSonics) equipped with a 30 MHz probe for small animals (MX-400) to determine the early diastolic inflow velocity pattern (E-wave). Early diastolic mitral annular velocity (e′) is measured by tissue Doppler echocardiography. […] LV end-systolic diameter and LV end-diastolic diameter are measured by M-mode echocardiography to calculated an LV ejection fraction (EF %). […]
SMILES,efficacy for HFpEF patients (HFpEF patients),left ventricular ejection fraction before and after drug administration (HFpEF model mice [1]),E/e′ ratio after completion of drug administration compared with before start (HFpEF model mice [1]),stiffness constant β compared with control group (HFpEF model mice [2]),heart weight/tibia length ratio after completion of drug administration (HFpEF model mice [3]),left ventricular ejection fraction before and after drug administration (HFpEF model mice [4]),E/e′ ratio after completion of drug administration compared with before start (HFpEF model mice [4]),stiffness constant β compared with control group (HFpEF model mice [5]),"tissue fibrosis (fibrosis area, high-power field) compared with control group (HFpEF model mice [6])",effect on the diastolic function of the HFpEF model mice (HFpEF model mice [7])
OC[C@H]1O[C@@H](c2ccc(Cl)c(Cc3ccc(O[C@H]4CCOC4)cc3)c2)[C@H](O)[C@@H](O)[C@@H]1O [Empagliflozin],effective,,,,,,,,,
CC(C)=CCC/C(C)=C/CC/C(C)=C/C=C/C(C)=C/C(=O)O [peretinoin],,no difference,significantly reduced,reduced,no significant difference,no difference,significantly reduced,significantly reduced,significantly reduced,improving effect
CC1(C)CCC(C)(C)c2cc(NC(=O)c3ccc(C(=O)O)cc3)ccc21 [tamibarotene],,no difference,significantly reduced,reduced,no significant difference,no difference,significantly reduced,significantly reduced,significantly reduced,improving effect
